Test results from the CheMixHub viscosity set.
“And” between values parts separate entries of the source, which are not always exact repeats. Equal entries are not always repeated.

Test: xn = mol fraction of the nth substance listed

O=C(O)CCl + O
293.35 K, 101 kPa
Conditions	viscosity [mPa·s]
x1 = 0.01308	11070
x1 = 0.02204	12080
x1 = 0.02477	11950
x1 = 0.0251	11580
x1 = 0.03355	12540
x1 = 0.05294	15100

CCCCCCCCCC(=O)OC + CCCCCO
viscosity [mPa·s], 100 kPa
Conditions	x1 = 0.1	x1 = 0.2	x1 = 0.3	x1 = 0.4	x1 = 0.5	x1 = 0.6	x1 = 0.7	x1 = 0.8001	x1 = 0.9001
298.15 K	2.764	2.385	2.169	2.028	1.946	1.892	1.866	1.859	1.875
303.15 K	2.451	2.119	1.938	1.825	1.754	1.706	1.689	1.686	1.712
308.15 K	2.158	1.892	1.741	1.646	1.588	1.549	1.535	1.536	1.555
313.15 K	1.918	1.697	1.571	1.49	1.444	1.413	1.402	1.407	1.426
318.15 K	1.713	1.529	1.423	1.358	1.32	1.293	1.288	1.292	1.312
323.15 K	1.535	1.387	1.294	1.239	1.211	1.189	1.186	1.194	1.212

O=CC(Cl)(Cl)Cl + CCC(C)=O
viscosity [mPa·s], 101 kPa
Conditions	x1 = 0.1183	x1 = 0.2018	x1 = 0.3006	x1 = 0.3959	x1 = 0.5007	x1 = 0.5979	x1 = 0.6814	x1 = 0.7599	x1 = 0.847
298.15 K	0.5125	0.5629	0.6247	0.6758	0.7457	0.8097	0.8541	0.8952	0.9503
323.15 K	0.3989	0.4323	0.4784	0.5132	0.5619	0.6053	0.6241	0.6588	0.7035

CC[n+]1ccn(C)c1.COS(=O)(=O)[O-] + CN1CCCC1=O
101 kPa
Conditions	viscosity [mPa·s]
298.15 K, x1 = 0.243	9.19
298.15 K, x1 = 0.9139	68.9
298.15 K, x1 = 0.9581	76.81
303.15 K, x1 = 0.243	7.33
303.15 K, x1 = 0.282	8.88
308.15 K, x1 = 0.282	6.76
308.15 K, x1 = 0.3482	9.45
313.15 K, x1 = 0.3482	8.19

ClC(Cl)Cl + CCOC(C)=O
303.15 K, 101.3 kPa
Conditions	viscosity [mPa·s]
x2 = 0.1062	0.5361
x2 = 0.2031	0.5455
x2 = 0.305	0.5471
x2 = 0.4094	0.5381
x2 = 0.5069	0.5255
x2 = 0.6112	0.5028
x2 = 0.808	0.4504
x2 = 0.9027	0.4254

CC(=O)OCc1ccccc1 + Cc1cccc(O)c1
313.15 K, 101.33 kPa
Conditions	viscosity [mPa·s]
x1 = 0.115	5.114
x1 = 0.272	3.917
x1 = 0.435	3.06
x1 = 0.62	2.337
x1 = 0.81	1.765

O=CC(Cl)(Cl)Cl + C[N+](=O)[O-]
viscosity [mPa·s], 101.33 kPa
Conditions	x1 = 0.1002	x1 = 0.2003	x1 = 0.2963	x1 = 0.4004	x1 = 0.4966	x1 = 0.5833	x1 = 0.6948	x1 = 0.8007	x1 = 0.8965
298.15 K	0.661	0.7023	0.7591	0.8043	0.8435	0.8874	0.9389	0.9876	1.028
323.15 K	0.5186	0.5507	0.5793	0.6238	0.6316	0.6661	0.6895	0.7155	0.7491

O=CC(Cl)(Cl)Cl + CCO
viscosity [mPa·s], 101 kPa
Conditions	313.15 K	318.15 K	323.15 K
x1 = 0.1	1.126	1.031	0.939
x1 = 0.15	1.406	1.271	1.141
x1 = 0.2	1.753	1.569	1.397
x1 = 0.25	2.2	1.951	1.702
x1 = 0.3	2.783	2.383	2.074
x1 = 0.4	4.053	3.366	2.848
x1 = 0.425	4.352	3.58	3
x1 = 0.45	4.632	3.769	3.141
x1 = 0.475	4.757	3.854	3.201
x1 = 0.49	4.703	3.788	3.143
x1 = 0.5	4.565	3.673	3.064
x1 = 0.55	3.937	3.201	2.706
x1 = 0.6	3.311	2.737	2.392
x1 = 0.7	2.258	1.989	1.757
x1 = 0.75	1.976	1.724	1.53
x1 = 0.8	1.755	1.542	1.38
x1 = 0.9	1.351	1.219	1.12

CC(=O)OCc1ccccc1 + Cc1cccc(C)c1
viscosity [mPa·s], 101 kPa
Conditions	x1 = 0.0925	x1 = 0.1766	x1 = 0.2746	x1 = 0.3691	x1 = 0.4674	x1 = 0.5665	x1 = 0.6703	x1 = 0.7681	x1 = 0.8773	x1 = 0.9356
303.15 K	0.593	0.638	0.712	0.79	0.884	0.996	1.125	1.257	1.436	1.535
313.15 K	0.528	0.576	0.634	0.679	0.751	0.837	0.942	1.05	1.177	1.245

CC(=O)OCc1ccccc1 + CCCCCO
viscosity [mPa·s], 101.33 kPa
Conditions	x1 = 0.1074	x1 = 0.2083	x1 = 0.2988	x1 = 0.4051	x1 = 0.5012	x1 = 0.6057	x1 = 0.7115	x1 = 0.8097	x1 = 0.9004
293.15 K	3.865	3.649	3.465	3.261	3.087	2.909	2.738	2.589	2.459
303.15 K	2.789	2.661	2.551	2.427	2.321	2.21	2.103	2.009	1.926
313.15 K	2.194	2.1	2.018	1.927	1.848	1.766	1.686	1.616	1.553
323.15 K	1.296	1.288	1.281	1.274	1.266	1.259	1.251	1.244	1.237

O=CC(Cl)(Cl)Cl + CCCC(C)=O
viscosity [mPa·s], 101 kPa
Conditions	x1 = 0.1199	x1 = 0.2489	x1 = 0.3714	x1 = 0.5058	x1 = 0.6071	x1 = 0.7288	x1 = 0.8116	x1 = 0.9001
298.15 K	0.524	0.595	0.6722	0.7399	0.8153	0.8727	0.9343	0.9935
323.15 K	0.4084	0.458	0.5112	0.5571	0.6	0.6402	0.6822	0.7258

CCCCCCCCCCCCCCCC + CCCO
101 kPa
Conditions	viscosity [mPa·s]
298.15 K, x2 = 0.3	2.665
308.15 K, x2 = 0.8	1.795

CCCCCCCCCCCCCCCC + CCCCCCCCCCCC
298.15 K, 101.33 kPa
Conditions	viscosity [mPa·s]
x2 = 0.1077	2.821
x2 = 0.2113	2.643
x2 = 0.3061	2.467
x2 = 0.4097	2.281
x2 = 0.5073	2.102
x2 = 0.6082	1.936
x2 = 0.7053	1.767
x2 = 0.8045	1.636
x2 = 0.905	1.476

O=CC(Cl)(Cl)Cl + CC(C)=O
viscosity [mPa·s], 101 kPa
Conditions	x1 = 0.0713	x1 = 0.1371	x1 = 0.2697	x1 = 0.3708	x1 = 0.4723	x1 = 0.5664	x1 = 0.6561	x1 = 0.7731	x1 = 0.8964
298.15 K	0.4048	0.4541	0.5494	0.6015	0.6699	0.7342	0.7924	0.8894	0.9679
308.15 K	0.3678	0.4111	–	0.5376	0.5949	0.6484	0.7021	0.7778	0.8506
323.15 K	0.3231	0.3615	0.4176	0.4606	0.5118	0.554	0.6001	0.6568	0.7107

ClC(Cl)Cl + CCCCCCCCO
viscosity [mPa·s], 101 kPa
Conditions	303.15 K	313.15 K
x1 = 0.0471	5.924	4.259
x1 = 0.0996	5.36	3.883
x1 = 0.149	4.852	3.545
x1 = 0.1997	4.346	3.212
x1 = 0.2493	3.898	2.902
x1 = 0.3001	3.475	2.593
x1 = 0.3529	3.039	2.315
x1 = 0.4037	2.666	2.07
x1 = 0.4548	2.332	1.823
x1 = 0.5001	2.062	1.648
x1 = 0.555	1.772	1.426
x1 = 0.5995	1.552	1.273
x1 = 0.6467	1.37	1.134
x1 = 0.7001	1.171	0.987
x1 = 0.7484	1.036	0.883
x1 = 0.7997	0.929	0.769
x1 = 0.8451	0.804	0.704
x1 = 0.9007	0.693	0.627
x1 = 0.9494	0.616	0.555

CC(C)C(=O)O + [2H]O[2H]
101 kPa, x1 = 0.111
Conditions	viscosity
318.1 K	2.122 mPa·s and 2.132 mPa·s and 2.14 mPa·s
318.11 K	2.112 mPa·s
318.12 K	2.092 mPa·s
318.13 K	2.074 mPa·s
318.14 K	2.06 mPa·s
318.15 K	2.046 mPa·s
318.17 K	2.018 mPa·s
318.19 K	2.011 mPa·s
318.2 K	1.997 mPa·s
318.23 K	1.973 mPa·s
318.26 K	1.956 mPa·s
318.29 K	1.944 mPa·s
318.3 K	1.934 mPa·s
318.36 K	1.912 mPa·s
318.39 K	1.902 mPa·s
318.48 K	1.876 mPa·s
318.56 K	1.857 mPa·s
318.66 K	1.838 mPa·s
318.69 K	1.833 mPa·s
318.98 K	1.788 mPa·s
319.21 K	1.763 mPa·s
319.69 K	1.717 mPa·s
320.21 K	1.677 mPa·s
321.2 K	1.615 mPa·s
322.2 K	1.562 mPa·s
